Source: ChEMBL document CHEMBL1142130, “Quinolone resistance in Helicobacter pylori isolates in Germany” (2007)
In brackets after ≈: the same amount, converted by molar mass.

Columns and labels:
Assay type in all cases: functional
Helicobacter pylori [1] = assay: Antimicrobial activity against ciprofloxacin-resistant Helicobacter pylori 4 containing gyrA C261G mutation by Etest method
Helicobacter pylori [2] = assay: Antimicrobial activity against ciprofloxacin-resistant Helicobacter pylori 14 containing gyrA A272G mutation by Etest method
Helicobacter pylori [3] = assay: Antimicrobial activity against ciprofloxacin-resistant Helicobacter pylori 12 containing gyrA G271A mutation by Etest method
Helicobacter pylori [4] = assay: Antimicrobial activity against ciprofloxacin-resistant Helicobacter pylori 4 containing gyrA G271T mutation by Etest method
Helicobacter pylori [5] = assay: Antimicrobial activity against ciprofloxacin-resistant Helicobacter pylori 26 containing gyrA C261A mutation by Etest method

O=C(O)c1cn(C2CC2)c2cc(N3CCNCC3)c(F)cc2c1=O [CIPROFLOXACIN] showed an MIC (Helicobacter pylori [1]) of 4 µg/mL (≈ 12.1 µM), an MIC (Helicobacter pylori [2]) of 16 µg/mL (≈ 48.3 µM) and an MIC (Helicobacter pylori [3]) of 16 µg/mL (≈ 48.3 µM). It also gave an MIC (Helicobacter pylori [4]) of 8 µg/mL (≈ 24.1 µM) and an MIC (Helicobacter pylori [5]) of 4 µg/mL (≈ 12.1 µM).
